Source: patent publication US10562935B2, “Stapled peptides and uses thereof” (London Health Sciences Centre Research Inc., priority 2015, dated 2020)
Bridges are numbered along the chain shown (N, C = ends).

Columns and labels:
[1] = Direct HA-binding ELISA of biotinylated peptides on HA coated plates (Example 4); set-up: key to HA binding: absorbance (color) read at 450 nm; details: for HA binding: as repeated in tables 16, 18, 20; for HA direct binding (OD): optical density, summary tables 15, 17, 19
In short: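 N-terminally biotinylated peptides (AEEA spacer) added to HA-coated wells at 0.8 or 0.08 μM, n=3, overnight at 4° C with shaking; biotin-labeled 7 kDa RHAMM as positive control. Bound peptide detected with streptavidin-HRP (1 hr, room temperature) and TMB substrate (5-10 min), absorbance at 450 nm.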

[2] = system: RHAMM-overexpressing (LR21) cells; assay: Cell invasion assay (Boyden chamber with MATRIGEL, Chemicon ECM555); type: cell-based; details: for Invasion (% inhib.): % inhibition relative to positive control, 10 ng/mL of peptide; for inhibition of cellular invasion (in words): 10 ng/mL peptide, 20 hours, compared to 30% serum control
In short: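 Serum-starved RHAMM-overexpressing LR21 cells (7.5×10^4) placed in upper Boyden chamber over MATRIGEL-coated filter, with or without 10 ng/mL peptide; 30% FBS/DMEM chemoattractant below. Invaded cells quantified after 20 h by CyQUANT GR fluorescence (480/520 nm); mean ± SD, n=3, versus 30% serum control.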

[3] = Function blocking score: total percent inhibition over migration, invasion, inflammation and fibrosis assays divided by number of assays; type: cell-based; details: total percent inhibition for all assays tested divided by number of assays
Procedure: As documented in the Examples hereinabove, a variety of cyclized peptides were produced that contained the HA-binding domain 1 (HABD1), HA-binding domain 2 (HABD2), or both HABD1 and HABD2. These peptides were evaluated for helicity, direct HA binding and in a number of cell-based bioassays (effects on migration, invasion, NFkB activation, and TGFβ1 production) that are relevant to inflammation and fibrosis. The relationships amongst helicity, HA-binding, and biofunction were evaluated. Peptides were divided into three groups for this analysis: (1) peptides containing HABD1 (“HABD1”); (2) peptides containing HABD2 (“HABD2”); and peptides containing most or all of HABD1 and all of HABD2 (“HABD1+HABD2”). R^2 values were calculated to quantify the relationships between helicity, HA-binding, and biofunction were evaluated.
The results of this analysis for the HABD1 peptides are shown below in Tables 15 and 16. Table 16 provides a function blocking scores for each of the tested peptides and provides R^2 values showing the relationship between HA binding and helicity (“HA binding vs. CD”), HA binding and function-blocking score (“HA binding vs. FBS”) and helicity vs. function-blocking score (“CD vs. FBS”). The same type of summaries are provided for the HABD2 peptides in Tables 17 and 18 below, and for the HABD1+HABD2 peptides in Tables 19 and 20 below.
Function blocking scores were calculated as the total percent inhibition achieved by the peptide for all assays the peptides were tested in, divided by the number of assays. Assays included migration, invasion, inflammation and fibrosis assays. Not all peptides were tested all of the assays. All peptides were included for deriving R^2 values (Pearson's formula).

| Substance | HA binding [1] | HA direct binding (OD) [1] | Invasion (% inhib.) [2] | Function blocking score (FBS) [3] | inhibition of cellular invasion (in words) [2] |
| --- | --- | --- | --- | --- | --- |
| Ac-(cyclo-7-11, cyclo-28-32)-NLKQKI[EHVVK]LKDENSQLKSEVSKLR[EQLVK]RKQN-NH2 (Ac-NLKQKIEHVVKLKDENSQLKSEVSKLREQLVKRKQN-NH2; lactam 7-11, 28-32; SMILES CC[C@H](C)[C@H](NC(=O)[C@H](CCCCN)NC(=O)[C@H](CCC(N)=O)NC(=O)[C@H](CCCCN)NC(=O)[C@H](CC(C)C)NC(=O)[C@H](CC(N)=O)NC(C)=O)C(=O)N[C@H]1CCC(=O)NCCCC[C@@H](C(=O)N[C@@H](CC(C)C)C(=O)N[C@@H](CCCCN)C(=O)N[C@@H](CC(=O)O)C(=O)N[C@@H](CCC(=O)O)C(=O)N[C@@H](CC(N)=O)C(=O)N[C@@H](CO)C(=O)N[C@@H](CCC(N)=O)C(=O)N[C@@H](CC(C)C)C(=O)N[C@@H](CCCCN)C(=O)N[C@@H](CO)C(=O)N[C@@H](CCC(=O)O)C(=O)N[C@H](C(=O)N[C@@H](CO)C(=O)N[C@@H](CCCCN)C(=O)N[C@@H](CC(C)C)C(=O)N[C@@H](CCCNC(=N)N)C(=O)N[C@H]2CCC(=O)NCCCC[C@@H](C(=O)N[C@@H](CCCNC(=N)N)C(=O)N[C@@H](CCCCN)C(=O)N[C@@H](CCC(N)=O)C(=O)N[C@@H](CC(N)=O)C(N)=O)NC(=O)[C@H](C(C)C)NC(=O)[C@H](CC(C)C)NC(=O)[C@H](CCC(N)=O)NC2=O)C(C)C)NC(=O)[C@H](C(C)C)NC(=O)[C@H](C(C)C)NC(=O)[C@H](Cc2c[nH]cn2)NC1=O) [Compound 278] | 0.125 | 0.125 OD | 0 % inhib. | 12 | – |
| Ac-(cyclo-10-14, cyclo-15-19)-KIKHVVKLK[EENSK][EKSEK]SKLRSQLVKRK-NH2 (Ac-KIKHVVKLKEENSKEKSEKSKLRSQLVKRK-NH2; lactam 10-14, 15-19; SMILES CC[C@H](C)[C@H](NC(=O)[C@H](CCCCN)NC(C)=O)C(=O)N[C@@H](CCCCN)C(=O)N[C@@H](Cc1c[nH]cn1)C(=O)N[C@H](C(=O)N[C@H](C(=O)N[C@@H](CCCCN)C(=O)N[C@@H](CC(C)C)C(=O)N[C@@H](CCCCN)C(=O)N[C@H]1CCC(=O)NCCCC[C@@H](C(=O)N[C@H]2CCC(=O)NCCCC[C@@H](C(=O)N[C@@H](CO)C(=O)N[C@@H](CCCCN)C(=O)N[C@@H](CC(C)C)C(=O)N[C@@H](CCCNC(=N)N)C(=O)N[C@@H](CO)C(=O)N[C@@H](CCC(N)=O)C(=O)N[C@@H](CC(C)C)C(=O)N[C@H](C(=O)N[C@@H](CCCCN)C(=O)N[C@@H](CCCNC(=N)N)C(=O)N[C@@H](CCCCN)C(N)=O)C(C)C)NC(=O)[C@H](CCC(=O)O)NC(=O)[C@H](CO)NC(=O)[C@H](CCCCN)NC2=O)NC(=O)[C@H](CO)NC(=O)[C@H](CC(N)=O)NC(=O)[C@H](CCC(=O)O)NC1=O)C(C)C)C(C)C) [Compound 266] | 0.24 | 0.24 OD | 50 % inhib. | 28 | significantly inhibited cellular invasion |
| Ac-(cyclo-10-14, cyclo-15-19)-KIKHVVKLK[EENSK][KKSEE]SKLRSQLVKRK-NH2 (Ac-KIKHVVKLKEENSKKKSEESKLRSQLVKRK-NH2; lactam 10-14, 15-19; SMILES CC[C@H](C)[C@H](NC(=O)[C@H](CCCCN)NC(C)=O)C(=O)N[C@@H](CCCCN)C(=O)N[C@@H](Cc1c[nH]cn1)C(=O)N[C@H](C(=O)N[C@H](C(=O)N[C@@H](CCCCN)C(=O)N[C@@H](CC(C)C)C(=O)N[C@@H](CCCCN)C(=O)N[C@H]1CCC(=O)NCCCC[C@@H](C(=O)N[C@H]2CCCCNC(=O)CC[C@@H](C(=O)N[C@@H](CO)C(=O)N[C@@H](CCCCN)C(=O)N[C@@H](CC(C)C)C(=O)N[C@@H](CCCNC(=N)N)C(=O)N[C@@H](CO)C(=O)N[C@@H](CCC(N)=O)C(=O)N[C@@H](CC(C)C)C(=O)N[C@H](C(=O)N[C@@H](CCCCN)C(=O)N[C@@H](CCCNC(=N)N)C(=O)N[C@@H](CCCCN)C(N)=O)C(C)C)NC(=O)[C@H](CCC(=O)O)NC(=O)[C@H](CO)NC(=O)[C@H](CCCCN)NC2=O)NC(=O)[C@H](CO)NC(=O)[C@H](CC(N)=O)NC(=O)[C@H](CCC(=O)O)NC1=O)C(C)C)C(C)C) [Compound 268] | 0.19 | 0.19 OD | 50 % inhib. | 14 | significantly inhibited cellular invasion |
| Ac-(cyclo-10-14, cyclo-15-19)-KIKHVVKLK[KENSE][EKSEK]SKLRSQLVKRK-NH2 [Compound 269] | 0.19 | 0.19 OD | 0 % inhib. | 13 | – |
| Ac-(cyclo-11-15, cyclo-16-20)-KIKHVVKLKD[ENSQK][ESEVK]KLRSQLVKRIK-NH2 [Compound 267] | 0.01 | 0.01 OD | 0 % inhib. | 0 | – |
| Ac-(cyclo-28-32)-NLKQKIKHVVKLKDENSQLKSEVSKLR[EQLVK]RKQN-NH2 (Ac-NLKQKIKHVVKLKDENSQLKSEVSKLREQLVKRKQN-NH2; lactam 28-32; SMILES CC[C@H](C)[C@H](NC(=O)[C@H](CCCCN)NC(=O)[C@H](CCC(N)=O)NC(=O)[C@H](CCCCN)NC(=O)[C@H](CC(C)C)NC(=O)[C@H](CC(N)=O)NC(C)=O)C(=O)N[C@@H](CCCCN)C(=O)N[C@@H](Cc1c[nH]cn1)C(=O)N[C@H](C(=O)N[C@H](C(=O)N[C@@H](CCCCN)C(=O)N[C@@H](CC(C)C)C(=O)N[C@@H](CCCCN)C(=O)N[C@@H](CC(=O)O)C(=O)N[C@@H](CCC(=O)O)C(=O)N[C@@H](CC(N)=O)C(=O)N[C@@H](CO)C(=O)N[C@@H](CCC(N)=O)C(=O)N[C@@H](CC(C)C)C(=O)N[C@@H](CCCCN)C(=O)N[C@@H](CO)C(=O)N[C@@H](CCC(=O)O)C(=O)N[C@H](C(=O)N[C@@H](CO)C(=O)N[C@@H](CCCCN)C(=O)N[C@@H](CC(C)C)C(=O)N[C@@H](CCCNC(=N)N)C(=O)N[C@H]1CCC(=O)NCCCC[C@@H](C(=O)N[C@@H](CCCNC(=N)N)C(=O)N[C@@H](CCCCN)C(=O)N[C@@H](CCC(N)=O)C(=O)N[C@@H](CC(N)=O)C(N)=O)NC(=O)[C@H](C(C)C)NC(=O)[C@H](CC(C)C)NC(=O)[C@H](CCC(N)=O)NC1=O)C(C)C)C(C)C)C(C)C) [Compound 277] | 0.12 | 0.12 OD | 0 % inhib. | 29 | – |
| Ac-KIKHVVKLKDENSQLKSEVSKLRSQLVKRK-NH2 [Compound 265] | 0.10 | 0.10 OD | 46 % inhib. | 28 | significantly inhibited cellular invasion |
| Ac-NLKQKIKHVVKLKDENSQLKSEVSKLRSQLVKRKQN-NH2 [Compound 275] | 0.11 | 0.11 OD | 0 % inhib. | 12 | – |
| Ac-VSKLRSQLVKRKQN-NH2 [Compound 132] | 0.03 | 0.03 OD | 66 % inhib. | 17 | significantly inhibited cellular invasion |
